According to the NIST ThermoML archive (doi:10.1021/je0500431):
± gives the expanded uncertainty stated by the source.

Conditions: for surface tension liquid-gas: Ring tensiometer; for mass density: 101.33 kPa, Liquid

| Compound | surface tension liquid-gas (293.15 K) [mN/m] | mass density (293.15 K) [kg/m3] | surface tension liquid-gas (298.15 K) [mN/m] | mass density (298.15 K) [kg/m3] | surface tension liquid-gas (303.15 K) [mN/m] | surface tension liquid-gas (308.15 K) [mN/m] | surface tension liquid-gas (313.15 K) [mN/m] | surface tension liquid-gas (318.15 K) [mN/m] | mass density (318.15 K) [kg/m3] | surface tension liquid-gas (323.15 K) [mN/m] |
| --- | --- | --- | --- | --- | --- | --- | --- | --- | --- | --- |
| CCC(C)O (stereo not given) [butan-2-ol] | 23.18 ± 0.35 | 807.1 ± 0.6 | 22.74 ± 0.34 | 802.9 ± 0.6 | 22.38 ± 0.34 | 21.94 ± 0.33 | 21.56 ± 0.33 | 21.11 ± 0.32 | 785.5 ± 0.6 | 20.76 ± 0.32 |
| CCCC(C)O (stereo not given) [pentan-2-ol] | 23.7 ± 0.43 | 809.8 ± 1 | 23.28 ± 0.42 | 805.7 ± 1 | 22.87 ± 0.41 | 22.43 ± 0.41 | 22.04 ± 0.4 | 21.6 ± 0.39 | 788.8 ± 1 | 21.16 ± 0.39 |
| CC(C)O [propan-2-ol] | 21.3 ± 0.34 | 785.1 ± 0.7 | 20.95 ± 0.34 | 780.9 ± 0.8 | 20.55 ± 0.33 | 20.2 ± 0.33 | 19.83 ± 0.32 | 19.47 ± 0.32 | 763.3 ± 0.8 | 19.09 ± 0.31 |
| CCCO [propan-1-ol] | 23.73 ± 0.37 | 803.1 ± 0.7 | 23.3 ± 0.37 | 799.3 ± 0.7 | 22.9 ± 0.36 | 22.52 ± 0.36 | 22.1 ± 0.35 | 21.68 ± 0.35 | 783.2 ± 0.7 | 21.27 ± 0.34 |

Results, then the compound that gave them:

| surface tension liquid-gas (293.15 K) [mN/m] | mass density (293.15 K) [kg/m3] | surface tension liquid-gas (298.15 K) [mN/m] | mass density (298.15 K) [kg/m3] | surface tension liquid-gas (303.15 K) [mN/m] | surface tension liquid-gas (308.15 K) [mN/m] | surface tension liquid-gas (313.15 K) [mN/m] | surface tension liquid-gas (318.15 K) [mN/m] | mass density (318.15 K) [kg/m3] | surface tension liquid-gas (323.15 K) [mN/m] | Compound |
| --- | --- | --- | --- | --- | --- | --- | --- | --- | --- | --- |
| 39.05 ± 0.57 | 1045.2 ± 0.6 | 38.58 ± 0.56 | 1041.4 ± 0.6 | 38.12 ± 0.55 | 37.63 ± 0.55 | 37.16 ± 0.54 | 36.63 ± 0.54 | 1025.8 ± 0.6 | 36.18 ± 0.53 | OCc1ccccc1 [benzenemethanol] |
| 25.69 ± 0.46 | 815.3 ± 1 | 25.29 ± 0.45 | 811.6 ± 1 | 24.86 ± 0.44 | 24.49 ± 0.44 | 24.06 ± 0.43 | 23.67 ± 0.42 | 796.6 ± 1 | 23.3 ± 0.42 | CCCCCO [pentan-1-ol] |
| 24.16 ± 0.36 | 810.4 ± 0.6 | 23.7 ± 0.36 | 806.5 ± 0.6 | 23.26 ± 0.35 | 22.78 ± 0.35 | 22.39 ± 0.34 | 21.99 ± 0.34 | 790.9 ± 0.6 | 21.53 ± 0.33 | CCCCO [butan-1-ol] |
